Columns and labels:
[1] = Antiproliferative activity against human L02 cells assessed as inhibition rate at 0.1 uM incubated for 72 hrs by MTT assay relative to control; type: toxicity, cell-based
[2] = tested on: SCC-25; experiment: Antiproliferative activity against human SCC-25 cells assessed as inhibition rate at 0.1 uM incubated for 72 hrs by MTT assay relative to control; type: functional
[3] = Antiproliferative activity against human WSU HN-30 cells assessed as inhibition rate at 0.1 uM incubated for 72 hrs by MTT assay relative to control; type: functional; settings: WSU-HN30
[4] = Antiproliferative activity against human HN-6 cells assessed as inhibition rate at 0.1 uM incubated for 72 hrs by MTT assay relative to control; type: functional
[5] = tested on: CAL-27; experiment: Antiproliferative activity against human CAL-27 cells assessed as inhibition rate at 0.1 uM incubated for 72 hrs by MTT assay relative to control; type: functional
[6] = tested on: SCC-9; experiment: Antiproliferative activity against human SCC-9 cells assessed as inhibition rate at 0.1 uM incubated for 72 hrs by MTT assay relative to control; type: functional
[7] = tested on: CAL-27; experiment: Cytotoxicity against human CAL-27 cells incubated for 72 hrs by MTT assay; type: functional, cell-based; settings: CAL-27, 72 h
[8] = Cytotoxicity against human HN-6 cells incubated for 72 hrs by MTT assay; type: functional, cell-based; settings: HN-6, 72 h
[9] = tested on: SCC-25; experiment: Cytotoxicity against human SCC-25 cells incubated for 72 hrs by MTT assay; type: functional, cell-based; settings: SCC-25, 72 h
[10] = Cytotoxicity against human L02 cells incubated for 72 hrs by MTT assay; type: toxicity, cell-based
[11] = Cytotoxicity against human […] incubated for 72 hrs by MTT assay; type: functional, cell-based; settings: WSU-HN30, 72 h
[12] = tested on: SCC-9; experiment: Cytotoxicity against human SCC-9 cells incubated for 72 hrs by MTT assay; type: functional, cell-based; settings: SCC-9, 72 h

Row | Compound | inhibition at 72 h, 0.1 µM [1] | inhibition at 0.1 µM [2] | inhibition at 0.1 µM [3] | inhibition at 0.1 µM [4] | inhibition at 0.1 µM [5] | inhibition at 0.1 µM [6] | IC50 [7] | IC50 [8] | IC50 [9] | IC50 at 72 h [10] | IC50 [11] | IC50 [12]
1 | COc1cc2c(O[C@@H]3O[C@@H]4CO[C@@H](C5CCCC5)O[C@H]4[C@H](O)[C@H]3O)c3c(c(-c4ccc5c(c4)OCO5)c2cc1OC)C(=O)OC3 | 9.37% | 49.1% | 40.5% | 54.2% | 8.02% | 42% |  |  |  |  |  | 
2 | COc1cc2c(OCCOCCNC(=O)C3(F)CNC3)c3c(c(-c4ccc5c(c4)OCO5)c2cc1OC)C(=O)OC3 | 3.51% | 19.5% | 10.7% | 10.8% | 9.95% | 32.6% |  |  |  |  |  | 
3 | COc1cc2c(NC(=O)C(F)(F)[C@]3(OCc4ccccc4)O[C@H](COCc4ccccc4)[C@@H](OCc4ccccc4)[C@H](OCc4ccccc4)[C@H]3OCc3ccccc3)c3c(c(-c4ccc5c(c4)OCO5)c2cc1OC)C(=O)OC3 | 3.29% | 17.8% | 8.5% | 12.7% | 26.1% | 14.7% |  |  |  |  |  | 
4 | COc1cc2c(NC(=O)C(F)(F)[C@]3(O)O[C@@H]4CO[C@@H](c5ccsc5)O[C@H]4[C@H](O)[C@H]3O)c3c(c(-c4ccc5c(c4)OCO5)c2cc1OC)C(=O)OC3 | 3.32% | 23.6% | 14% | 14.5% | 25.8% | 16.6% |  |  |  |  |  | 
5 | COc1cc2c(O[C@@H]3O[C@@H]4CO[C@@H](c5cccc(C(F)(F)F)c5)O[C@H]4[C@H](O)[C@H]3O)c3c(c(-c4ccc5c(c4)OCO5)c2cc1OC)C(=O)OC3 | 9.53% | 33.6% | 40.9% | 60.6% | 37.4% | 37.5% |  |  |  |  |  | 
6 | COc1cc2c(OCCN)c3c(c(-c4ccc5c(c4)OCO5)c2cc1OC)C(=O)OC3 | 7.89% | 10.8% | 18.9% | 28.2% | 6.31% | 30.4% |  |  |  |  |  | 
7 | COc1cc2c(O[C@@H]3O[C@@H]4CO[C@@H](c5cccs5)O[C@H]4[C@H](O)[C@H]3O)c3c(c(-c4ccc5c(c4)OCO5)c2cc1OC)C(=O)OC3 | 7.19% | 52.5% | 41.3% | 56.3% | 50.7% | 54% | 18.1 nM | 68.1 nM | 9.34 nM | > 10000 nM | 120 nM | 31.5 nM
8 | COc1cc2c(O[C@@H]3O[C@@H]4CO[C@@H](C5CCCCC5)O[C@H]4[C@H](O)[C@H]3O)c3c(c(-c4ccc5c(c4)OCO5)c2cc1OC)C(=O)OC3 | 11.5% | 47.4% | 40.6% | 62.1% | 50.5% | 46.6% | 11.6 nM | 14.8 nM | 15.2 nM | 4670 nM | 35.2 nM | 29.7 nM
9 | COc1cc2c(OCCOCCNC(=O)C3=C[C@H](O)[C@H](O)[C@@H](O)C3)c3c(c(-c4ccc5c(c4)OCO5)c2cc1OC)C(=O)OC3 | 5.67% | 31.4% | 16.2% | 27.2% | 31.1% | 22.2% |  |  |  |  |  | 
10 | COc1cc2c(O[C@@H]3O[C@@H]4CO[C@@H](c5csc(Br)c5)O[C@H]4[C@H](O)[C@H]3O)c3c(c(-c4ccc5c(c4)OCO5)c2cc1OC)C(=O)OC3 | 20.8% | 58.4% | 49.9% | 57.6% | 78.3% | 72.3% | 14.5 nM | 6.07 nM | 86.4 nM | 3680 nM | 7.33 nM | 16.4 nM
11 | COc1cc2c(O[C@@H]3O[C@@H]4CO[C@@H](C5CCOCC5)O[C@H]4[C@H](O)[C@H]3O)c3c(c(-c4ccc5c(c4)OCO5)c2cc1OC)C(=O)OC3 | 6.66% | 24.6% | 28.9% | 58.9% | 35.5% | 35.4% |  |  |  |  |  | 
12 | COc1cc2c(O[C@@H]3O[C@@H]4CO[C@@H](c5ccc(SC)cc5)O[C@H]4[C@H](O)[C@H]3O)c3c(c(-c4ccc5c(c4)OCO5)c2cc1OC)C(=O)OC3 | 6.84% | 35.4% | 47.4% | 57.1% | 35.9% | 41.1% |  |  |  |  |  | 
13 | COc1cc2c(OCCOCCNC(=O)[C@@H]3CCC(=O)N3)c3c(c(-c4ccc5c(c4)OCO5)c2cc1OC)C(=O)OC3 | 6.04% | 18.5% | 15.9% | 19.8% | 29.5% | 8.65% |  |  |  |  |  | 
14 | COc1cc2c(OCCOCCNC(=O)C3CNCC(F)(F)C3)c3c(c(-c4ccc5c(c4)OCO5)c2cc1OC)C(=O)OC3 (centres undefined) | 10.6% | 23.2% | 11.7% | 10.2% | 2.03% | 25.6% |  |  |  |  |  | 
15 | COc1cc2c(OCCOCCNC(=O)[C@H]3[C@@H]4CNC[C@@H]43)c3c(c(-c4ccc5c(c4)OCO5)c2cc1OC)C(=O)OC3 | 3.53% | 14.7% | 6.67% | 7.38% | 2.26% | 17.5% |  |  |  |  |  | 
16 | COc1cc2c(OCCOCCN)c3c(c(-c4ccc5c(c4)OCO5)c2cc1OC)C(=O)OC3 | 18.3% | 28.9% | 34.2% | 50.8% | 45.6% | 34.9% | 101 nM | 185 nM | 85 nM | > 10000 nM | 144 nM | 135 nM
17 | COc1cc2c(OCCOCCNC(=O)[C@@H]3CC(F)(F)CN3)c3c(c(-c4ccc5c(c4)OCO5)c2cc1OC)C(=O)OC3 | 8.13% | 41.7% | 19.9% | 22.3% | 2.62% | 35.3% |  |  |  |  |  | 
18 | COc1cc2c(OCCOCCNC(=O)C(F)(F)[C@]3(O)O[C@H](CO)[C@@H](O)[C@H](O)[C@H]3O)c3c(c(-c4ccc5c(c4)OCO5)c2cc1OC)C(=O)OC3 | 1.74% | 10.2% | 8.25% | 4.3% | 1.73% | 13.9% |  |  |  |  |  | 
19 | COc1cc([C@@H]2c3cc4c(cc3[C@@H](O[C@@H]3O[C@@H]5CO[C@@H](C)O[C@H]5[C@H](O)[C@H]3O)[C@H]3COC(=O)[C@H]23)OCO4)cc(OC)c1O [ETOPOSIDE] |  |  |  |  |  |  | 7490 nM | > 10000 nM | 693 nM | > 10000 nM | 1700 nM | 3700 nM
20 | CCC(CC)[C@@H]1OC[C@H]2O[C@@H](Oc3c4c(c(-c5ccc6c(c5)OCO6)c5cc(OC)c(OC)cc35)C(=O)OC4)[C@H](O)[C@@H](O)[C@@H]2O1 | 8.83% | 44.9% | 38.3% | 55.1% | 24.3% | 43.2% |  |  |  |  |  | 
21 | COc1cc2c(OCCOCCNC(=O)CON)c3c(c(-c4ccc5c(c4)OCO5)c2cc1OC)C(=O)OC3 | 9.46% | 31.8% | 23.5% | 18.7% | 33% | 18.7% |  |  |  |  |  | 
22 | COc1cc2c(O[C@@H]3O[C@@H]4CO[C@@H](c5ccc(C)s5)O[C@H]4[C@H](O)[C@H]3O)c3c(c(-c4ccc5c(c4)OCO5)c2cc1OC)C(=O)OC3 | 9.5% | 41% | 40.1% | 57.2% | 32.4% | 46.2% |  |  |  |  |  | 
23 | COc1cc2c(NC(=O)C(F)(F)[C@]3(O)O[C@H](CO)[C@@H](O)[C@H](O)[C@H]3O)c3c(c(-c4ccc5c(c4)OCO5)c2cc1OC)C(=O)OC3 | 4.58% | 28.2% | 12.3% | 13.1% | 27.6% | 19.4% |  |  |  |  |  | 
24 | COc1cc2c(O[C@@H]3O[C@@H]4CO[C@@H](c5ccsc5)O[C@H]4[C@H](OC(C)=O)[C@H]3OC(C)=O)c3c(c(-c4ccc5c(c4)OCO5)c2cc1OC)C(=O)OC3 | 9.07% | 47.4% | 49.4% | 61.1% | 48.2% | 45.8% | 20.1 nM | 11.6 nM | 43.3 nM | > 10000 nM | 92.6 nM | 16.1 nM
